Measured values as given in patent US9028874B2, “Antioxidant nanosphere comprising [1,2]-dithiolane moieties” (Cedars-Sinai Medical Center, priority 2008, dated 2015).

What was measured:
[1] = Nanosphere formation by spontaneous emulsification; hydrodynamic size and polydispersity by dynamic light scattering; format: physicochemical; conditions: 25 mg/5 mL acetone into 10 mL 0.25% w/v Pluronic F-68 in water
Experimental: Nanospheres were prepared according to the method using spontaneous emulsification with slight modification. Briefly, 25 mg of the compounds were dissolved in acetone (5 mL). The organic solution was poured under moderate stirring on a magnetic plate into an aqueous phase prepared by dissolving 25 mg of Pluronic F68 in 10 mL bidistilled water (0.25% w/v). Following 15 min of magnetic stirring, the acetone was removed under reduced pressure at room temperature. The nanospheres were filtered through 0.45 μm hydrophilic syringe filter and stored at 4° C. The hydrodynamic size measurement and size distribution of the nanospheres was performed by the dynamic light scattering (DLS) using a Coulter N4-Plus Submicron Particle Sizer (Coulter Corporation, Miami, Fla.). The nanospheres were purified by centrifuging three times at 20,000×g for 30 min at 25° C. and resuspending each time in the same volume of deionized water. […] The size was assessed on three separate batches of the nanosphere formulation. The recovery yield was calculated as follows: RY (%)=(mass of the mALA-containing compounds recovered/mass of the mALA-containing compounds used in formulation)×100%. […] The solution was analyzed for the compounds by RP-HPLC. Separation was performed using 80% acetonitrile (0.1% trifluoroacetic acid, TFA) as mobile phase and the eluent was monitored using UV detector at 330 nm. […]

[2] = DPPH radical scavenging assay, Method A (dissolved DPPH); format: biochemical; conditions: Method A: 50 μM DPPH dissolved in ethanol/water; violet to pale yellow
Experimental: Method A: 5 mL of 100 μM DPPH solution in ethanol was mixed with 5 mL of water, resulting in a final concentration of 50 μM for DPPH. Trolox and ascorbic acid were dissolved in 100 mM sodium phosphate buffer (pH 7.5, 2.5 mM). The concentration of α-tocopherol in nanospheres was adjusted to 2.5 mM. The predetermined amount of Trolox, ascorbic acid solution and nanospheres were added to the DPPH solution using Hamilton syringe carefully to the bottom of 20 mL glass bottle to minimize the premature mixing. After gentle mixing, pictures were taken using digital camera (50000 pxitex).
The antioxidant capability of the nanospheres was assessed by the scavenging activity of DPPH free radical. The DPPH radical scavenging assay is often used as a model for the measurement of lipid radial scavenging activity of antioxidant compounds. […] The DPPH radical scavenging assay is usually performed in a 50:50 mixture of water and organic solvents, commonly ethanol or dimethyl suloxide, in which the DPPH radical is completely dissolved. In this condition (Method A), the violet color of DPPH radical solution converted instantaneously to the pale yellow color, which is indicative of an instantaneous DPPH radical scavenging by the nanospheres (FIG. 6a, Method A).

[3] = DPPH radical scavenging assay, Method B (fine dispersed DPPH suspension); format: biochemical; conditions: Method B: DPPH suspension in water
Experimental: Method B: 400 μL of 1.25 mM DPPH solution in ethanol was added to 9500 μL of water to give a fine dispersed DPPH suspension. Pictures were taken as described above.
In the method B (FIG. 6a), 400 μL of 1.25 mM DPPH solution in ethanol was added to 9500 μL of water to give a fine dispersed DPPH suspension with the particle size of 164±26 nm (polydispersity index 0.03).

With `O=C(CCCCC1CCSS1)OCCOCCOCCOCCOC(=O)CCCCC1CCSS1` (stereo not drawn) [Compound 4a, 2×Lipoic Acid/Tetraethylene Glycol] the “formation of stable nanospheres” value [1] was “failure”.
With `O=C(CCCCC1CCSS1)OCCN1CCN(CCOC(=O)CCCCC2CCSS2)CC1` (stereo not drawn) [Compound 7a, 2×Lipoic acid/1,4-Bis(2-hydroxyethyl)-piperazine] the “formation of stable nanospheres” value [1] was “failure”.
For `Cc1c(C)c2c(c(C)c1O)CCC(C)(C(=O)O)O2` (stereo not drawn) [Trolox], the “DPPH radical scavenging (color change)” value [2] was “complete and occurred instantaneously” and the “DPPH radical scavenging (color change)” value [3] was “much less color changes”.
In the case of `O=C1O[C@H]([C@@H](O)CO)C(O)=C1O` [ascorbic acid], the “DPPH radical scavenging (color change)” value [2] was “complete and occurred instantaneously” and the “DPPH radical scavenging (color change)” value [3] was “much less color changes”.
